According to the NIST ThermoML archive (doi:10.1021/je0302295):
± gives the expanded uncertainty stated by the source.

Legend:
[1] = 293.15 K, 101.33 kPa, Liquid
[2] = refractive index (Na D-line) (dimensionless); details: 293.15 K; 101.33 kPa; Liquid; Standard Abbe refractometry
[3] = activity coefficient (dimensionless); of the first substance listed, at infinite dilution; xn = mol fraction of the nth substance listed; details: Liquid, Static method, x1 = 0

| mass density [1] [kg/m3] | refractive index [2] | activity coefficient ([3]; 303.15 K) | activity coefficient ([3]; 313.15 K) | activity coefficient ([3]; 323.15 K) | activity coefficient ([3]; 333.15 K) | activity coefficient ([3]; 343.15 K) | mass density ([1]; Vibrating tube method) [kg/m3] | SMILES |
| --- | --- | --- | --- | --- | --- | --- | --- | --- |
| 809.68 ± 0.29 | 1.3992 ± 0.0007 | – | – | – | – | – | – | CCCCO [butan-1-ol] |
| – | – | 31.3 ± 3 | 24.5 ± 1 | 19.3 ± 1 | 14.6 ± 0.8 | 11.6 ± 0.4 | – | CCCCO [butan-1-ol] + CCCCCCC |
| – | – | 32.1 ± 1.6 | 23.9 ± 0.8 | 18.4 ± 0.4 | 14.5 ± 0.4 | 11.2 ± 0.8 | – | CCCCO [butan-1-ol] + CCCCCCCC |
| – | 1.3876 ± 0.0007 | – | – | – | – | – | 683.79 ± 0.21 | CCCCCCC [heptane] |
| – | 1.3973 ± 0.0007 | – | – | – | – | – | 702.76 ± 0.2 | CCCCCCCC [octane] |
| 803.55 ± 0.29 | 1.3855 ± 0.0007 | – | – | – | – | – | – | CCCO [propan-1-ol] |
| – | – | 36.2 ± 1.1 | 27.2 ± 0.7 | 21.2 ± 1 | 15.8 ± 0.4 | 12.5 ± 0.2 | – | CCCO [propan-1-ol] + CCCCCCC |
| – | – | 34.2 ± 1.8 | 26.5 ± 1.4 | 20.5 ± 0.5 | 16.2 ± 0.3 | 12.9 ± 0.2 | – | CCCO [propan-1-ol] + CCCCCCCC |
